Reference: paper PMC6169531 (Journal of molecular biology, 2016)

What was measured:
Assay in all cases: inhibition of methyl p-nitrophenyl phosphate hydrolysis, […] nm
Format in all cases: biochemical
[1] = molecular target: AP (Escherichia coli alkaline phosphatase) (Escherichia coli, UniProt P00634, D175A)
[2] = molecular target: AP (Escherichia coli alkaline phosphatase) (Escherichia coli, UniProt P00634, D123A)
[3] = molecular target: AP (Escherichia coli alkaline phosphatase) (Escherichia coli, UniProt P00634, K350A)
Chain of AP (Escherichia coli alkaline phosphatase) (Escherichia coli, UniProt P00634, K350A) (P00634 23-471 K350A): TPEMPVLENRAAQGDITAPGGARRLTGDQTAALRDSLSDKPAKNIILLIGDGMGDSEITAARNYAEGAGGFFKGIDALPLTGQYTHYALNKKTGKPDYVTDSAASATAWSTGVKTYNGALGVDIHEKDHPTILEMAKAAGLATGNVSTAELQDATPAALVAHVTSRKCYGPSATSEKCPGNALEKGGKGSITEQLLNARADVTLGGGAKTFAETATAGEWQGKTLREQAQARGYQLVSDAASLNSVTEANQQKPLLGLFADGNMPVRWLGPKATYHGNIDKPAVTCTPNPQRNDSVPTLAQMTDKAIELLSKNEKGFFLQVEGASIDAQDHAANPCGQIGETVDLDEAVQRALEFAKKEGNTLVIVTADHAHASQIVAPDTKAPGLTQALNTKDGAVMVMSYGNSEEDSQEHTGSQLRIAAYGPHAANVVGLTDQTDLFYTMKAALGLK

[4] = molecular target: AP (Escherichia coli alkaline phosphatase) (Escherichia coli, UniProt P00634, E344Y)
Chain of AP (Escherichia coli alkaline phosphatase) (Escherichia coli, UniProt P00634, E344Y) (P00634 23-471 E344Y): as the sequence (P00634 23-471 K350A) above, with E322Y, A328K counted along it

Chain of AP (Escherichia coli alkaline phosphatase) (Escherichia coli, UniProt P00634, D175A) (P00634 23-471 D175A): as the sequence (P00634 23-471 K350A) above, with D153A, A328K counted along it
Chain of AP (Escherichia coli alkaline phosphatase) (Escherichia coli, UniProt P00634, D123A) (P00634 23-471, stated change not applied): as the sequence (P00634 23-471 K350A) above, with A328K counted along it

Compound | Ki [1] [µM] | Ki [2] [µM] | Ki [3] [µM] | Ki [4] [µM]
[O]=[W](=[O])([OH])[OH] [tungstate] | 64 | 99 | 44 | 
[O]=[V]([OH])([OH])[OH] [vanadate] | 17 | 13 | 9.4 | 28
